Like-named read-outs stand apart in the source and are kept apart here.
Columns and labels:
[1] = system: LPS induced IL-23 (p19/p40) in DC cells; experiment: IL23-p19 ELISA, dendritic (DC) cells differentiated from human PBMC, LPS stimulated; format: cell-based; settings: LPS 1 μg/ml, 18 hours, 10 pt
Procedure: Compound Screening Using DC Cells
Human PBMC cells (400 million) obtained from the vendor were transferred into a T-175 flask containing 15 ml RPMI media (10% FBS) and incubate for 2 hours at 37° C. After 2 hours, the media including floating cells was aspirated out carefully and 12 ml of fresh RPMI media (10% FBS) containing GMCSF (100 ng/ml) and IL4 (20 ng/ml) was added, and the flask was kept in a 37° C. incubator for 7 days.
After 3 days, fresh GMCSF (100 ng/ml) and IL4 (20 ng/ml) were added to the flask and the incubation continued. After 7 days, the fully differentiated cells were harvested by spinning down (1200 rpm/5 min) and aspirating the media. The cells were suspended in fresh RPMI media (10% FBS) containing 50 ng/ml IFNγ (1000 U/ml) and then plated (50K/well in 100 μl) onto a white clear bottom 96 well plate and left in a 37° C. incubator for 24 hours.
After 24 hours incubation, 100 μl of RPMI media was added containing 2× concentrated test compound per well to the above cell-culture media (final concentration becomes 1×) and the plates were pre-incubated for 1 hour at 37° C. before stimulating with LPS.
After 1 hour compound pre-incubation, 10 μl per well of 20× concentrated LPS solution in RPMI media was added to give a final concentration of 1 μg/ml. The mixture was shaken and incubated the plates at 37° C. for an additional 18 hours.
155 μl of the supernatant was harvested from each well carefully (without the tip touching the bottom of the well) and to the remaining 50 μl/well of the cell culture plate was added 50 μl of Cell Titer Glo reagent. The mixture was incubated for 1-2 minutes on a shaker and the plate was read for luminescence intensity to determine the compound cytotoxicity. The cell culture supernatant collected above was used to carry out IL23 ELISA (65 μl—Supernatant) and IL10 ELISA (90 μl—Supernatant) as described below.
Human IL-23 (p19/p40) ELISA Protocol (e-Biosciences)
To 10.5 ml PBS add 50 μl of anti-IL23 (p19) was added capture antibody (2.5 μg/ml). The mixture was mixed well and 100 μl of the coating solution was added to each well of the 96 well white plates from Pierce. The wells were covered and incubated overnight at 4° C.
The anti-IL23 (p19)-antibody-coated plates were washed 2× using TBST (use plate washer) and blocked using 200 μl of 0.5% Casein for 1.5 to 2 hours at room temperature with shaking.
The plates were washed 2× using TBST and the supernatant was transferred (65 μl/well) to the above pre-blocked/IL23(p19)-antibody-coated 96 well plate, and incubated at room temperature for 1.5 hours with shaking.
The plates were washed 4× using TBST (plate washer) and 100 μl/well detection antibody solution prepared from 2 μl of biotin labeled anti-IL-12 (p40/p70) antibody in 11 ml 1% BSA/PBS solution (1-5000 dilution) was added. The plates were incubated for 1 hour with shaking at Room temperature.
Again, the plates were washed 4× with TBST and 100 μl of HRP labeled Streptavidin (R&D Systems) solution (10 μl/10 ml 1% BSA solution) was added, and the plates were incubated at room temperature for another 45 minutes with shaking.
After 45 minutes, the plates were washed with TBST 4× and 100 μl/well Super Signal ELISA Pico Chemiluminescent Substrate from Pierce (3.5 ml A+3.5 ml B+3.5 ml MQ water) was added. The plates were shaken for 1-2 minutes then read on a plate reader. […]

[2] = system: LPS Induced IL23p19 in THP-1 Cells; experiment: LPS Induced IL23p19 in THP-1 Cells (with IFNγ Primed) Assay; format: cell-based, human; settings: THP-1 cells primed with IFNγ 50 ng/mL, LPS 1 ug/mL, 18 hours, 10 pt, read-out: IL23-p19 ELISA, THP1-IFNγ, LPS, 10 pt EC50
Source text: LPS Induced IL23p19 in THP-1 Cells (with IFNγ Primed) Assay
THP-1 Cells (ATCC, Cat #TIB-202), Dimethyl Sulfoxide (DMSO) (Sigma-Aldrich, Cat #D2650), RPMI 1640 (Cellgro, Cat #10-040-CM), Fetal Bovine Serum (Sigma, Cat #F4135), Albumin From Bovine Serum (BSA) (Sigma-Aldrich, Cat #A7906), LPS (Serotype K-235, Sigma, Product Number L 2143), IFNγ (Peprotech, Cat #300-02) Capture antibody: Human IL-23p19 ELISA (e-Bioscience, Cat. #14-7238-85), Detection antibody: Primary Mouse Biotinylated anti-human IL-12(p40/p70) (e-Bioscience, Cat. #13-7129-85), Secondary HRP-conjugated Streptavidin (R&D Systems, Cat #DY998), 1×PBST Washing Buffer (PBS-Tween tablet) (VWR International, Cat #80058-558), ELISA Blocking Buffer (PBS with 1% BSA), ELISA Dilution Buffer (PBS with 1% BSA), 384 Well Flat-Bottom, MaxiSorp Black Immuno Plates (Thermo Scientific, Cat #12-565-346), 384 Well Flat-Bottom, White Tissue Culture Plates (Thermo Scientific, Cat #12-565-343), Super Signal ELISA Pico Chemiluminescent Substrate (Thermo Scientific, Cat #37070), Cell Titer Glo reagent (Promega, Cat #G7573), Positive control, IKK2VI inhibitor (Calbiochem, Cat #401483), AquaMax 4000 plate washer (Molecular Devices), Luminometer, Wallac Victor2 1420 Multilabel Counter.
On day 1, 50K/well THP-1 cells were seeded and primed with IFNγ (50 ng/mL) in 384-well plates for about 18 hours in RPMI media with 10% FBS. On day 2, the compound was serially diluted in DMSO from 5 mM in 3-fold dilutions, and then diluted 1:125 in RPMI media with 10% FBS. 50 μL/well 2× compound was added to 50 μL/well THP-1 cells (with IFNγ primed) in duplicate in 384 well tissue culture plates. The cells were pre-incubated with compound for 1 hour at 37° C., 5% CO2 before addition of 10 μL/well 11×LPS to give a final concentration of 1 ug/mL LPS. Day 3, after stimulation for 18 hours at 37° C., 5% CO2, the assay plate was centrifuged and 70 μL/well supernatant was harvested. IL-23p19 protein in 70 µL/well of supernatant was measured by sandwich ELISA, and 25 μl/well Cell Titer Glo reagent was added to the remaining cells to measure compound toxicity.
Human IL-23p19 Sandwich ELISA:
Maxisorp immuno ELISA plates were pre-coated with 25 μL/well of anti-IL-23p19 capture antibody (2.5 ug/mL) in PBS overnight at room temperature. After washing with 1×PBST, the plates were blocked using 100 μL/well of 1% BSA in PBS for 2 hours at room temperature. The plates were washed three times with 1×PBST and 70 μL/well supernatant were added. The plates were incubated at room temperature for 2 hours with shaking and washed three times with 1×PBST. 25 μL/well of biotin labeled anti-IL-12(p40/p70) detection antibody (100 ng/mL) in PBS with 1% BSA was added and the plates were incubated at room temperature for 2 hours with shaking. After washing three times with 1×PBST, 25 μL/well of streptavidin-HRP (1:200) in PBS with 1% BSA was added and the plates were incubated at room temperature for 20 minutes with shaking. The plates were washed three times with 1×PBST and 25 μL/well of Super Signal ELISA Pico Chemiluminescent Substrate were added. The plates were read with a luminometer, and the chemiluminescence values were entered into Athena (Rigel) for curve fitting, EC50 calculation, and database storage. […]

SMILES	EC50 ([1]; Table 1, IFNγ 50 ng/ml)	EC50 ([2]; Homo sapiens, Table 1)	EC50 ([1]; Table 2, IFNγ 50 ng/ml)	EC50 ([2]; Table 1)	EC50 ([2]; Table 2)
CCO[C@H]1CC[C@H](n2cc(NC(=O)c3coc(-c4cn[nH]c4)n3)c(-c3cnccn3)n2)CC1 [Compound I-1, N-(1-((1r,4r)-4-ethoxycyclohexyl)-3-(pyrazin-2-yl)-1H-pyrazol-4-yl)-2-(1H-pyrazol-4-yl)oxazole-4-carboxamide]	0.0334 µM	0.0048 µM	–	–	–
O=C(Nc1cn([C@H]2CC[C@H](N3CCOCC3)CC2)nc1-c1ncccn1)c1coc(-c2cn[nH]c2)n1 [Compound I-2, N-(1-((1r,4r)-4-morpholinocyclohexyl)-3-(pyrimidin-2-yl)-1H-pyrazol-4-yl)-2-(1H-pyrazol-4-yl)oxazole-4-carboxamide]	0.0842 µM	–	0.0842 µM	0.0343 µM	0.0343 µM
CCO[C@H]1CC[C@H](n2cc(NC(=O)c3coc(-c4cn[nH]c4)n3)c(-c3ncccn3)n2)CC1 [Compound I-3, N-(1-((1r,4r)-4-ethoxycyclohexyl)-3-(pyrimidin-2-yl)-1H-pyrazol-4-yl)-2-(1H-pyrazol-4-yl)oxazole-4-carboxamide]	0.0033 µM	–	0.0033 µM	0.0089 µM	0.0089 µM
O=C(Nc1cn([C@H]2CC[C@H](N3CCOCC3)CC2)nc1-c1cccc(C(F)F)n1)c1coc(-c2cn[nH]c2)n1 [Compound I-4, N-(3-(6-(difluoromethyl)pyridin-2-yl)-1-((1r,4r)-4-morpholinocyclohexyl)-1H-pyrazol-4-yl)-2-(1H-pyrazol-4-yl)oxazole-4-carboxamide]	0.0201 µM	–	0.0201 µM	0.0063 µM	0.0063 µM
C[C@@H]1CN(C2CCC(n3cc(NC(=O)c4coc(-c5cn[nH]c5)n4)c(-c4cccc(C(F)F)n4)n3)CC2)C[C@H](C)O1 (stereo partly drawn) [Compound I-5, N-(3-(6-(difluoromethyl)pyridin-2-yl)-1-((1R,4r)-4-((2R,6S)-2,6-dimethylmorpholino)cyclohexyl)-1H-pyrazol-4-yl)-2-(1H-pyrazol-4-yl)oxazole-4-carboxamide]	0.0102 µM	–	0.0102 µM	0.012 µM	0.012 µM
O=C(Nc1cn([C@H]2CC[C@H](N3CCOCC3)CC2)nc1-c1nc(C(F)(F)F)ccc1F)c1coc(-c2cn[nH]c2)n1 [Compound I-7, N-(3-(3-fluoro-6-(trifluoromethyl)pyridin-2-yl)-1-((1r,4r)-4-morpholinocyclohexyl)-1H-pyrazol-4-yl)-2-(1H-pyrazol-4-yl)oxazole-4-carboxamide]	0.0757 µM	–	0.0757 µM	0.028 µM	0.028 µM
CCOC1CCC(n2cc(NC(=O)c3coc(-c4cnn(COP(=O)(O)O)c4)n3)c(-c3nc(F)ccc3F)n2)CC1 (stereo not drawn) [Compound I-8, sodium (4-(4-((3-(3,6-difluoropyridin-2-yl)-1-((1r,4r)-4-ethoxycyclohexyl)-1H-pyrazol-4-yl)carbamoyl)oxazol-2-yl)-1H-pyrazol-1-yl)methyl phosphate]	7.64 µM	–	7.64 µM	0.187 µM	0.187 µM
CCO[C@H]1CC[C@H](n2cc(NC(=O)c3coc(-c4cn[nH]c4)n3)c(-c3nc(F)ccc3F)n2)CC1 [Compound I-9, N-(3-(3,6-difluoropyridin-2-yl)-1-((1r,4r)-4-ethoxycyclohexyl)-1H-pyrazol-4-yl)-2-(1H-pyrazol-4-yl)oxazole-4-carboxamide]	0.172 µM	–	0.172 µM	0.0228 µM	0.0228 µM
CCO[C@H]1C[C@@H](n2cc(NC(=O)c3coc(-c4cn[nH]c4)n3)c(-c3nc(F)ccc3F)n2)C1 [Compound I-10, N-(3-(3,6-difluoropyridin-2-yl)-1-((1s,3s)-3-ethoxycyclobutyl)-1H-pyrazol-4-yl)-2-(1H-pyrazol-4-yl)oxazole-4-carboxamide]	0.0309 µM	–	0.0309 µM	0.0699 µM	0.0699 µM
O=C(Nc1cn([C@H]2CC[C@H](O)CC2)nc1-c1nc(F)ccc1F)c1coc(-c2cn[nH]c2)n1 [Compound I-11, N-(3-(3,6-difluoropyridin-2-yl)-1-((1r,4r)-4-hydroxycyclohexyl)-1H-pyrazol-4-yl)-2-(1H-pyrazol-4-yl)oxazole-4-carboxamide]	0.179 µM	–	0.179 µM	0.0254 µM	0.0254 µM
CCO[C@H]1CC[C@H](n2cc(NC(=O)c3coc(-c4cnn(COP(=O)(O)O)c4)n3)c(-c3nc(F)ccc3F)n2)CC1 [Compound I-12, (4-(4-((3-(3,6-difluoropyridin-2-yl)-1-((1r,4r)-4-ethoxycyclohexyl)-1H-pyrazol-4-yl)carbamoyl)oxazol-2-yl)-1H-pyrazol-1-yl)methyl dihydrogen phosphate]	2.4 µM	–	2.4 µM	0.177 µM	0.177 µM

From patent publication US11993594B2, “IRAK inhibitors and method for making and using” (Rigel Pharmaceuticals, Inc., priority 2016, dated 2024)
